Measured values reported in patent US20240316084A1, “COMPOSITIONS FOR USE IN PROMOTING ACCELERATED BUTYRATE PRODUCTION IN YOUNG CHILDREN” (SOCIETE DES PRODUITS NESTLE S.A., priority 2020, published 2024).

What was measured:
Assay type in all cases: cell-based, human
[1] = system: gut microbiota of a toddler; test: long term SHIME experiment with toddler samples (Example 1); details: for Actinobacteria population (Abundance), colon model / butyrate concentration in colon model: Toddler; for increase of butyrate production: young child, three weeks of treatment
Method: (§1) The model of the human gastrointestinal tract used was the SHIME®. The first two reactors are of the fill-and-draw principle to simulate different steps in food uptake and digestion, with peristaltic pumps adding a defined amount of SHIME® feed (140 mL 3×/day) and pancreatic and bile liquid (60 mL 3×/day), respectively to the stomach and small intestine compartment and emptying the respective reactors after specified intervals. The last three compartments simulate the large intestine. The SHIME® experiment for this study consisted of three stages: • Stabilization period: After inoculation of the colon reactors with a fresh faecal sample, a two-week stabilization period allowed the microbial community to differentiate in the different reactors depending on the local environmental conditions. During this period a basic nutritional matrix was provided to the SHIME to support the optimum diversity of the gut microbiota originally present in the faecal inoculum. • Control period: During this two-week reference period, the standard SHIME® nutrient matrix was further added to the model for a period of 14 days. Analysis of samples in this period allows to determine the baseline microbial community composition and activity in the different reactors, which will be used as a reference for evaluating the treatment effects. • Treatment period: During this three-week period, the SHIME® reactor was operated under nominal conditions, but with a diet supplemented with the 2′FL product on top of the normal composition. The diet supplemented with 2′FL was administered 3 times a day at a concentration of 1% SCFA Production were Measured Three Times Per Week Throughout the Experiment

gut microbes = test: gas production: samples from the proximal colon vessel of the SHIME treated with lactose or 2′-FL in a penicillin tube; details: for gas production between 6-24 h (rank): 6-24 h timeframe, Lactose versus 2′FL; for gas production at 48 h (gaz pressure): 48 h incubation
Method: Gas production is a measure of fermentative activity by gut microbes. […] Gas production is not monitored in the long-term SHIME® model, given its regular flushing with N2 (to ensure anaerobiosis). Therefore, gas production was evaluated by collecting samples from the proximal colon vessel of the SHIME and treating them with lactose or 2′-FL in a penicillin tube. It was then incubated for 24 h and 48 h. The gas formation was assessed in those tubes.

[2] = system: gut microbiota of a toddler; test: long term SHIME experiment, comparison of different HMOs blends in toddler (Example 2)
Method: The model of the human gastrointestinal tract used was the SHIM ED. The first two reactors are of the fill-and-draw principle to simulate different steps in food uptake and digestion, with peristaltic pumps adding a defined amount of SHIME feed (140 mL 3×/day) and pancreatic and bile liquid (60 mL 3×/day), respectively to the stomach and small intestine compartment and emptying the respective reactors after specified intervals. The last three compartments simulate the large intestine. The SHIME® experiment for this study consisted of three stages: • Stabilization period: After inoculation of the colon reactors with a fresh faecal sample, a two-week stabilization period allowed the microbial community to differentiate in the different reactors depending on the local environmental conditions. During this period a basic nutritional matrix was provided to the SHIME to support the optimum diversity of the gut microbiota originally present in the faecal inoculum. • Control period: During this two-week reference period, the standard SHIME nutrient matrix was further added to the model for a period of 14 days. Analysis of samples in this period allows to determine the baseline microbial community composition and activity in the different reactors, which will be used as a reference for evaluating the treatment effects. • Treatment period: During this three-week period, the SHIME reactor was operated under nominal conditions, but with a diet supplemented with the 2′FL product on top of the normal composition or with the mixtures HMO-3 or HMO-5. The diet supplemented with HMOs administered 3 times a day at a concentration of 1%. In this experiment, also branched SCFA (b-SCFA=sum of isobutyrate, isovalerate and isocaproate) were measured which result from protein degradation and reflect proteolytic activity of the gut microbiota. A significant alterations in those metabolites was shown in fecal extracts from patients with colon cancer compared to controls Ref: Le Gall 2018 (Oncotarget, 2018, Vol. 9, (No. 70), pp: 33278-33289)

[3] = system: gut microbiota of an infant; test: long term SHIME experiment with infant fecal samples (Example 1); details: for Actinobacteria population (Abundance), colon model / butyrate concentration in colon model: Infant; for increase of butyrate production: infant gut microbiota, three weeks of treatment
Method: as §1

[4] = treatment week 1, diet with 1% 2′FL 3 times a day
[5] = treatment week 2, diet with 1% 2′FL 3 times a day
[6] = treatment week 3, diet with 1% 2′FL 3 times a day
[7] = distal colon, treatment week 3, diet with 1% HMOs 3 times a day

2′-fucosyllactose [2′-FL]
Actinobacteria population (Abundance), colon model ([1]; treatment week 1): 49.9%
butyrate concentration in colon model [1, 4]: 28.1 mM/m1
Actinobacteria population (Abundance), colon model ([1]; treatment week 2): 53%
butyrate concentration in colon model [1, 5]: 30.2 mM/m1
Actinobacteria population (Abundance), colon model ([1]; treatment week 3): 52.2%
butyrate concentration in colon model [1, 6]: 30.3 mM/m1
butyrate concentration in the colon, onset of effect ([1]; toddler samples): immediate increase
butyrate concentrations, course through the treatment period ([1]; toddler samples): relatively stable
effect on Actinobacteria phylum mainly composed of Bifidobacteria ([1]; toddlers): immediate effect
increase of butyrate production ([1]; Distal Colon): 156%
increase of butyrate production ([1]; Proximal Colon): 192%
gas production between 6-24 h (rank) (gut microbes): lowest
gas production at 48 h (gaz pressure) (gut microbes; Infant): 31.8 kPA
gas production at 48 h (gaz pressure) (gut microbes; Toddler): 49.9 kPA
gas production over 48 hours as compared to Lactose (gut microbes; both toddler and infant, 48 hours): less gas production
increase in gas production corresponding to accelerated butyrate production (gut microbes; toddlers): no corresponding increase in gas production
butyrate production in the colon, onset of effect [2]: immediate increase
BCFA production in toddler [2, 7]: 3.1 mM
butyrate production in toddler [2, 7]: 29.5 mM
Actinobacteria population (Abundance), colon model ([3]; treatment week 1): 31.8%
butyrate concentration in colon model [3, 4]: 13.75 mM/m1
Actinobacteria population (Abundance), colon model ([3]; treatment week 2): 46.3%
butyrate concentration in colon model [3, 5]: 15.85 mM/m1
Actinobacteria population (Abundance), colon model ([3]; treatment week 3): 43.5%
butyrate concentration in colon model [3, 6]: 20.3 mM/m1
increase in butyrate, onset of effect ([3]; infant fecal samples, over the weeks of treatment): more gradual
increase of butyrate production ([3]; Distal Colon): 54%
increase of butyrate production ([3]; Proximal Colon): 81%

OC[C@H]1O[C@@H](O[C@H]2[C@H](O)[C@@H](O)C(O)O[C@@H]2CO)[C@H](O)[C@@H](O)[C@H]1O (stereo partly shown) [Lactose, reference compound]
gas production between 6-24 h (rank) (gut microbes): highest
gas production at 48 h (gaz pressure) (gut microbes; Infant): 4.7 kPA
gas production at 48 h (gaz pressure) (gut microbes; Toddler): 12.8 kPA
